Assay results: EP2653477B1, “SCORPION ACTIVE PEPTIDES AND PREPARATION METHODS AND APPLICATIONS THEREOF” (Wuhan More Biotechnology Co., Ltd., priority 2010, dated 2012)
Bridge positions count the residues as written; N and C are the ends. Peptide text beside a SMILES is read from it.

How the values were obtained:
[1] = test system: rheumatoid arthritis; experiment: pristane-induced rheumatoid arthritis in SD rats, joint score and hind foot plantar swelling; assay type: in vivo; parameters: key to Score of joint: clinical score 1-4: 1 joint red/swollen=1 ... severe whole-limb arthritis=4; conditions: x±s, n=10; for Score of joint: arthritis rats, polypeptides 100 µg·kg^-1 (methotrexate 1.75 µg·kg^-1) subcutaneously once every day, score 1-4; for The swelling degree after the inflammation: volume difference of hind foot before and after the modeling
Protocol: […] Female (♀) specific pathogen free (SPF) inbred line SD rats (Wuhan University Laboratory Animal Center), body weight 150±10 g, were selected, and pristane was injected intradermally at the base of the tail of rats in experimental groups at a dose of 0.2 ml/rat, after they were acclimatized in a clean-grade environment for 1 week. Rheumatoid arthritis appeared after the rats were raised for only 2 weeks.
The rats having arthritis were randomized into: normal control group (negative control group), model negative control group (model rat + normal saline), model positive control group (model rat + methotrexate), administration group A (model rat + ADMR-011 polypeptide), administration group B (model rat + ADMR-016 polypeptide), administration group C (model rat + ADMR-019 polypeptide), administration group D (model rat + ADMR-023 polypeptide), and administration group E (model rat + ADMR-028 polypeptide), 10 rats for each group. The administration groups were injected subcutaneously at a dose of 100 µg·kg^-1, once every day in the morning, and administered continuously; the normal control group and the model negative control group were injected subcutaneously with equivalent amount of normal saline; and the model positive control group were injected subcutaneously with methotrexate (MTX) at a dose of 1.75 µg·kg^-1, once every day, and administered continuously.
The highest clinical score for each animal was recorded, and the average value of them was taken to be the average clinical score. The scoring criteria were: one joint of a rat was red and swollen, 1 point; two joints of a rat were red and swollen, 2 points; all the joints of a rat were red and swollen, 3 points; severe arthritis in the entire limb of a rat, 4 points. Table 2. Arthritis scores for rats of various experimental groups (-x±s)
From day 8 of the experiment, the hind foot plantar volume of the rat was measured and recorded every other day for 21 consecutive days, and the swelling degree (mL) was calculated according to the volume difference before and after the modeling. Table 3. The swelling degree of rats in various experimental groups (-x±s)

[2] = test system: Kunming mice; experiment: toxicity study in mice, single intraperitoneal injection, 7 days observation; assay type: in vivo; conditions: 10 mg/kg intraperitoneally once (100 times the dose for animal model), observed 7 days
Protocol: 18∼20 g Kunming mice were selected, and divided into 4 groups, 8 male mice and 8 female mice for each group. The lyophilized powders of scorpion active polypeptides ADMR-011, ADMR-016, ADMR-019, ADMR-023 and ADMR-028 were dissolved with normal saline respectively, and the 3 groups of mice were injected intraperitoneally once respectively with polypeptide solution at a dose of 10 mg/kg (100 times of the dose for animal model), and the fourth group were injected with equivalent amount of normal saline as control.
After the administration, the respiration, motor and heartbeat in animals of all the groups were all normal, without significant abnormal reaction. 7 days after the administration, all the animals were conducted gross anatomy to observe the volume, color and texture of the main organs (heart, liver, spleen, lung, and kidney), and there was no macroscopic lesion. There were no significant difference between the 3 administration groups and the normal saline group.

[3] = biological target: T1, potassium channel Kv1.3 (Homo sapiens, UniProt P22001); experiment: whole-cell patch clamp, inhibition of Kv1.3 current in transfected COS-7 cells; assay type: cell-based; conditions: potassium channel Kv1.3 in COS-7 cells, read-out: polypeptide concentrations that inhibit the current by half (IC50 value)
T1 construct: expressed in transfected cells; host or cells: COS-7 cells, selected with 0.8 mg/mL geneticin
Protocol: COS-7 cells were cultured in a DMEM medium containing 10% fetal calf serum, at 37° C, 5% CO2. The recombinant plasmids of potassium channel Kv1.3 were transfected by using a Sofast™ transfection kit, and the transfected cells were selectively cultured in a medium containing 0.8 mg/mL geneticin. The pharmacological activities of scorpion active polypeptides ADMR-011, ADMR-016, ADMR-019, ADMR-023 and ADMR-028 were tested and analyzed by using an instrument of whole-cell patch clamp (EPC-10 dual-channel patch clamp amplifier HEKA, Elektronik, Lambrecht, Germany). The setting of the experimental parameters, the collecting of data, and the applying of stimulus were all controlled by Pulse software (Elektronik, Lambrecht, Germany). The filter of the instrument was set to be 10 kHz (Bessel), and the electrode impedance was 2∼5 MΩ. After the formation of giga-seal (1∼5 GΩ) between the electrode and cell membrane, an automatic c-fast was performed, and the membrane was broken by slightly applying negative pressure, then an automatic c-slow was performed. At a holding potential of -70 mV, depolarizing pulses, incrementing in 10 mV steps, with a step width of 80 ms , were given to stimulate from -60 mV to +50 mV, and the condition of current was observed. The polypeptides ADMR-011, ADMR-016 and ADMR-019 were accurately perfused, which was achieved by MPS-2 (INBIO Inc, Wuhan, China) perfusing system. After dissolving the three scorpion active polypeptides, they were applied by spraying via DAD Drug Application System (ALA), and the tip of the tube for drug application was about 100 µm away from the cell being recorded.
It can be known from Figure 16 to Figure 20 that, the pharmacological activity of ADMR-011 on potassium channel Kvl.3 was 91 pM, the pharmacological activity of ADMR-016 on potassium channel Kvl.3 was 2.58 nM, the pharmacological activity of ADMR-019 on potassium channel Kv1.3 was 1.41 nM, and the pharmacological activity of ADMR-023 and ADMR-028 on potassium channel Kvl.3 were 0.49 nM and 0.65 nM, respectively. Therefore, they are polypeptides with potent activity that are currently found internationally.

[4] = test system: Wistar rat EAE model; experiment: EAE (multiple sclerosis) model in Wistar rats induced by GPSCH-CFA, clinical scoring; assay type: in vivo; conditions: 100 µg·kg^-1 subcutaneously once every day, x±s, n=10, score 0-5
Description: Experimental animals: female inbred line Wistar rats (6∼8 week old, body weigh 150±10 g) and guinea pigs (300∼400 g, purchased from Wuhan University Laboratory Animal Center) were selected.
Formulating a mixed emulsion of whole spinal cord homogenate - Freund's complete adjuvant (GPSCH-CFA): a guinea pig was executed, and the spinal cord was rapidly removed, and prepared into 50% PBS homogenate by a ultrasonic disruptor (Sonics & Materials Inc, America), which was mixed with equal amount of Freund's complete adjuvant (BCG vaccine 10 mg/ml), and was pushed back and forth with syringes until forming a water-in-oil emulsion.
Wistar rat EAE model induced by EAE: GPSCH-CFA emulsion was injected intradermally into the foot pads of both the hind legs of Wistar rats, or simultaneously injected intradermally about 1×10^10 pertussis vaccine. The rats were weighed every day, and observed for their neurological symptoms. Experimental autoimmune encephalomyelitis appeared after the rats had been raised for 2 weeks.
The rats with experimental autoimmune encephalomyelitis (EAE) were divided into […] groups randomly: normal control group (negative control group), model control group (model rats + normal saline), administration group A (model rats + ADMR-011 polypeptide), administration group B (model rats + ADMR-016 polypeptide), administration group C (model rats + ADMR-019 polypeptide), administration group D (model rats + ADMR-023 polypeptide), and administration group E (model rats + ADMR-028 polypeptide), 10 rats for each group. For the administration groups, polypeptides ADMR-011, ADMR-016, ADMR-019, ADMR-023 and ADMR-028 were injected subcutaneously respectively at a dose of 100 µg·kg^-1, once every day in the morning. For the normal control group and the model control group, equivalent amount of normal saline was injected subcutaneously, and administered continuously. […] The highest clinical score for each animal was recorded, and the average value of them was taken to be the average clinical score.
The scoring criteria were: without any clinical symptom, 0 point; disappearance of tension in the tail, and observable mild awkward gait, 1 point; weakness in both the hind limbs, which can recover after passive body flipping, 2 points; paralysis in both the hind limbs, which can not recover after passive body flipping, 3 points; tetraplegia accompanied by incontinence of urine and feces, 4 points; moribund state or death, 5 points. Table 1. Scores for rats of various experimental groups in the EAE model (-x±s)

T1 sequence (P22001 whole entry): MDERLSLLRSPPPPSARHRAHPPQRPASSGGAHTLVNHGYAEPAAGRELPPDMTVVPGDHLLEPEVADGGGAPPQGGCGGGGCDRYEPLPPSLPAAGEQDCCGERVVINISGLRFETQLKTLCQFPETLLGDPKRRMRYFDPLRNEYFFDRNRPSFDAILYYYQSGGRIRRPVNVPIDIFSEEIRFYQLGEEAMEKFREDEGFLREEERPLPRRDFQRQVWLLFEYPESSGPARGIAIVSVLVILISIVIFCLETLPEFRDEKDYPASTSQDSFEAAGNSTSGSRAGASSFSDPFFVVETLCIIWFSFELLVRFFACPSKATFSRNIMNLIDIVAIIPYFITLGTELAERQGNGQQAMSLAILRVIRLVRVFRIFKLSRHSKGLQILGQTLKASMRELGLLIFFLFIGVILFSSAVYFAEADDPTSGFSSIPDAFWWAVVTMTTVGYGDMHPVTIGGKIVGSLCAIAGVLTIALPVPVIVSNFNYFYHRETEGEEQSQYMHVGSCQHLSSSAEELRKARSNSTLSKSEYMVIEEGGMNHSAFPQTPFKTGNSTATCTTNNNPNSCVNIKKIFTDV

SMILES | Score of joint ([1]; 10 d) | Score of joint ([1]; 15 d) | Score of joint ([1]; 21 d) | The swelling degree after the inflammation ([1]; d8) | The swelling degree after the inflammation ([1]; d15) | The swelling degree after the inflammation ([1]; d22) | The swelling degree after the inflammation ([1]; d28) | toxicity in mice [2] | IC50 [3] | Average clinical scores ([4]; 8 d) | Average clinical scores ([4]; 10 d) | Average clinical scores ([4]; 12 d) | Average clinical scores ([4]; 14 d)
CC[C@H](C)[C@H](NC(=O)CNC(=O)[C@@H](N)C(C)C)C(=O)N[C@@H](CC(N)=O)C(=O)N[C@H](C(=O)N[C@@H](CCC(N)=O)C(=O)N[C@H]1CSSC[C@@H]2NC(=O)[C@H](CCC(N)=O)NC(=O)CNC(=O)[C@H](Cc3ccccc3)NC(=O)[C@H](CCCNC(=N)N)NC(=O)[C@H](CCSC)NC(=O)CNC(=O)[C@H](C)NC(=O)[C@H](CC(=O)O)NC(=O)[C@H](CCCCN)NC(=O)[C@@H]3CSSC[C@@H](C(=O)N[C@H](C(=O)N4CCC[C@H]4C(=O)N[C@@H](CCCCN)C(=O)O)[C@@H](C)O)NC(=O)[C@H](CC(=O)O)NC(=O)[C@H](CSSC[C@H](NC(=O)[C@H](CCC(N)=O)NC(=O)[C@H](CCCNC(=N)N)NC(=O)[C@H](CO)NC(=O)CNC(=O)[C@H](CC(N)=O)NC1=O)C(=O)N[C@@H](CC(C)C)C(=O)N[C@@H](CCCCN)C(=O)N1CCC[C@H]1C(=O)N3)NC(=O)[C@H]([C@@H](C)O)NC(=O)CNC(=O)[C@H](CC(N)=O)NC(=O)[C@H]([C@@H](C)CC)NC2=O)C(C)C [ADMR-019] (H-VGINVQCNGSRQCLKPCKDAGMRFGQCINGTCDCTPK-OH; disulfide 7-27, 13-32, 17-34 (inferred); N-terminus and C-terminus assumed) | 1.78±0.48 | 2.17±0.55 | 1.81±0.77 | 0.034 ± 0.011 mL | 0.27 ± 0.07 mL | 0.34 ± 0.11 mL | 0.37 ± 0.13 mL | no significant toxicity | 1.41 nM | 0.53±0.16 | 0.93±0.46 | 1.19±0.51 | 1.37±0.34
CC[C@H](C)[C@H](NC(=O)CNC(=O)[C@@H](N)C(C)C)C(=O)N[C@@H](CC(N)=O)C(=O)N[C@H](C(=O)N[C@@H](CCC(N)=O)C(=O)N[C@H]1CSSC[C@@H]2NC(=O)[C@H](CCC(N)=O)NC(=O)CNC(=O)[C@H](Cc3ccccc3)NC(=O)[C@H](CCCNC(=N)N)NC(=O)[C@H](CCSC)NC(=O)CNC(=O)[C@H](C)NC(=O)[C@H](CC(=O)O)NC(=O)[C@H](CCCCN)NC(=O)[C@@H]3CSSC[C@@H](C(=O)N[C@H](C(=O)N4CCC[C@H]4C(=O)N[C@@H](CCCCN)C(=O)O)[C@@H](C)O)NC(=O)[C@H](CC(=O)O)NC(=O)[C@H](CSSC[C@H](NC(=O)[C@H](CCC(N)=O)NC(=O)CNC(=O)[C@H](CO)NC(=O)[C@H](Cc4c[nH]cn4)NC(=O)[C@H](CC(N)=O)NC1=O)C(=O)N[C@@H](CC(C)C)C(=O)N[C@@H](CCCCN)C(=O)N1CCC[C@H]1C(=O)N3)NC(=O)[C@H](CCCCN)NC(=O)CNC(=O)[C@H](CC(N)=O)NC(=O)[C@H]([C@@H](C)CC)NC2=O)C(C)C [ADMR-023] (H-VGINVQCNHSGQCLKPCKDAGMRFGQCINGKCDCTPK-OH; disulfide 7-27, 13-32, 17-34 (inferred); N-terminus and C-terminus assumed) | 1.69±0.23 | 2.23±0.71 | 1.85±0.59 | 0.035 ± 0.010 mL | 0.25 ± 0.08 mL | 0.32 ± 0.14 mL | 0.29 ± 0.15 mL | no significant toxicity | 0.49 nM | 0.55±0.19 | 0.81±0.29 | 1.21±0.25 | 1.17±0.27
